Laboratory results from article PMC10066365, “Nemacol is a small molecule inhibitor of C. elegans vesicular acetylcholine transporter with anthelmintic potential” (Nature Communications, 2023).
Several values for one entry are separate records, joined by “and”; a condition that tells them apart may be missing. Identical values can stand only once. Like-named read-outs stand apart in the source and are kept apart here.

Key:
C. elegans = C. elegans motor phenotype scoring on solid media (Punc/jerky-unc, coiled, paralyzed), wild-type young adults; type: in vivo, Caenorhabditis elegans; conditions: for any phene, mean % fraction of young adults exhibiting any phenotype (coiled, jerky-Unc or paralyzed) / atypical locomotion (number of animals) / coiled (number of animals) / no phene (number of animals) / paralyzed (number of animals): one hour; for any phene, mean % fraction of young adults exhibiting any phenotype (coiled, jerky-Unc or paralyzed): mean of three biological replicates; for atypical locomotion (number of animals) / coiled (number of animals) / no phene (number of animals) / paralyzed (number of animals): young adults, 20 animals per trial, single replicate counts; for EC50: Caenorhabditis elegans, read-out: C. elegans - motor disruption EC50
[1] = system: Dirofilaria immitis microfilariae; experiment: Dirofilaria immitis microfilariae immobility assay (DiroImager, 72 h); conditions: Dirofilaria immitis microfilariae
Description: We conducted experiments with the Missouri isolate of Dirofilaria immitis in two labs. In the first set of experiments, shown as part of Fig. 3c, D. immitis microfilariae and larval stage 3 (L3) worms were assayed in the laboratories of Bayer Animal Health GmbH (Monheim, Germany). For microfilariae immobility assays, approximately 250 freshly purified microfilariae were cultured in single wells of a 96-well microtiter plate containing supplemented RPMI 1640 medium[68],[69]. […] Microfilariae exposed to medium substituted with 1% DMSO were used as negative controls. Motility of microfilariae was evaluated after 72 h of drug exposure using an image-based approach—DiroImager, developed by Bayer Technology Services. As described in detail in refs. [68],[69], the DiroImager is an automated high-throughput platform that allows for high-resolution optical imaging of an entire 96-well microtiter plate.

[2] = system: Dirofilaria immitis L3/L4; experiment: Dirofilaria immitis L3/L4 motility assay (DiroImager, 72 h); conditions: Dirofilaria immitis L4
Pristionchus pacificus = Pristionchus pacificus motor disruption dose-response on solid media, 1 h; conditions: for mean % any phene (coiled, jerky-Unc or paralyzed): Pristionchus pacificus young adults, mean of three biological replicates; for EC50: Pristionchus pacificus, 1 h, read-out: P. pacificus motor disruption EC50
[3] = any motor phenotype after 1 h on solid media, ± 95% CI
[4] = conc 3.75, observed at one hour

Structure (SMILES) | any phene, mean % fraction of young adults exhibiting any phenotype (coiled, jerky-Unc or paralyzed) (C. elegans; 3.75uM) [%] | atypical locomotion (number of animals) (C. elegans; 3.75uM) | coiled (number of animals) (C. elegans; 3.75uM) | no phene (number of animals) (C. elegans; 3.75uM) | paralyzed (number of animals) (C. elegans; 3.75uM) | any phene, mean % fraction of young adults exhibiting any phenotype (coiled, jerky-Unc or paralyzed) (C. elegans; 15uM) [%] | atypical locomotion (number of animals) (C. elegans; 15uM) | coiled (number of animals) (C. elegans; 15uM) | no phene (number of animals) (C. elegans; 15uM) | paralyzed (number of animals) (C. elegans; 15uM) | any phene, mean % fraction of young adults exhibiting any phenotype (coiled, jerky-Unc or paralyzed) (C. elegans; 60uM) [%] | atypical locomotion (number of animals) (C. elegans; 60uM) | coiled (number of animals) (C. elegans; 60uM) | no phene (number of animals) (C. elegans; 60uM) | paralyzed (number of animals) (C. elegans; 60uM) | % effect (motility), DIROIM MF ([1]; 0.016 µM) [%] | % effect (motility), DIROIM MF ([1]; 0.08 µM) [%] | % effect (motility), DIROIM MF ([1]; 0.4 µM) [%] | % effect (motility), DIROIM MF ([1]; 2 µM) [%] | % effect (motility), DIROIM MF ([1]; 10 µM) [%] | further results
Fc1ccc(N2CCN(CC3CCCCC3)CC2)cc1 [Nemacol-9] | 21.6667 | 0 and 14 and 12 | 0 | 20 and 6 and 8 | 0 | 44.1667 | 5 and 3 and 1 and 2 and 16 and 11 | 2 and 0 and 4 and 7 | 13 and 17 and 19 and 18 and 0 | 0 and 2 | 95 | 11 and 13 and 12 and 14 and 3 and 1 | 6 and 5 and 4 and 8 and 13 | 0 and 4 and 2 | 3 and 2 and 0 and 9 and 6 | 0 | 0 | 0 | 0 | 0 | EC50 (C. elegans; [3]): 14.4 ± 13.3 µM; % effect (motility), DIROIM L4 ([2]; 2 µM): 5%; % effect (motility), DIROIM L4 ([2]; 10 µM): 5%; % effect (motility), DIROIM L4 ([2]; 50 µM): 10%; mean % any phene (coiled, jerky-Unc or paralyzed) (Pristionchus pacificus; [4]): 1.667%; mean % any phene (coiled, jerky-Unc or paralyzed) (Pristionchus pacificus; conc 15, observed at one hour): 10%; mean % any phene (coiled, jerky-Unc or paralyzed) (Pristionchus pacificus; conc 60, observed at one hour): 100%; EC50 (Pristionchus pacificus): 20 µM
Clc1ccc(N2CCN(CC3CCCCC3)CC2)cc1 [Nemacol-10] | 0 | 0 | 0 | 20 | 0 | 27.5 | 5 and 4 and 3 and 1 and 2 | 1 and 2 and 0 and 3 | 14 and 13 and 18 | 0 and 1 and 3 | 55.6944 | 8 and 14 and 12 and 11 and 6 and 7 | 1 and 0 and 2 | 11 and 4 and 7 and 8 and 12 and 13 | 4 and 2 and 0 | 0 | 0 | 0 | 0 | 0 | EC50 (C. elegans; [3]): 45.7 ± 15.7 µM; % effect (motility), DIROIM L4 ([2]; 2 µM): 0%; % effect (motility), DIROIM L4 ([2]; 10 µM): 0%; % effect (motility), DIROIM L4 ([2]; 50 µM): 25%; mean % any phene (coiled, jerky-Unc or paralyzed) (Pristionchus pacificus; [4]): 0.8333%; mean % any phene (coiled, jerky-Unc or paralyzed) (Pristionchus pacificus; conc 15, observed at one hour): 3.333%; mean % any phene (coiled, jerky-Unc or paralyzed) (Pristionchus pacificus; conc 60, observed at one hour): 6.667%; EC50 (Pristionchus pacificus): > 60 µM
CCN1CCN(CC2CCCCC2)CC1 [Nemacol-11] | 3.333 | 0 and 3 and 1 | 0 | 20 and 17 and 19 | 0 | 6.667 | 0 and 5 and 3 | 0 | 20 and 15 and 17 | 0 | 19.1667 | 1 and 0 and 13 and 9 | 0 | 19 and 20 and 7 and 11 | 0 | 0 | 0 | 0 | 0 | 0 | EC50 (C. elegans; [3]): > 60 µM; % effect (motility), DIROIM L4 ([2]; 2 µM): 10%; % effect (motility), DIROIM L4 ([2]; 10 µM): 5%; % effect (motility), DIROIM L4 ([2]; 50 µM): 0%; mean % any phene (coiled, jerky-Unc or paralyzed) (Pristionchus pacificus; [4]): 0%; mean % any phene (coiled, jerky-Unc or paralyzed) (Pristionchus pacificus; conc 15, observed at one hour): 0%; mean % any phene (coiled, jerky-Unc or paralyzed) (Pristionchus pacificus; conc 60, observed at one hour): 3.333%; EC50 (Pristionchus pacificus): > 60 µM
c1ccc(N2CCN(CC3CCCCC3)CC2)cc1 [Nemacol-12] | 16.1842 | 0 and 7 and 11 | 0 and 1 | 20 and 11 and 9 | 0 | 39.1667 | 4 and 2 and 0 and 1 and 17 and 10 | 0 and 3 and 8 | 16 and 18 and 20 and 19 and 0 | 0 and 2 | 84.1667 | 11 and 14 and 7 and 10 and 2 and 1 | 3 and 4 and 5 and 6 and 14 and 19 | 6 and 2 and 7 and 4 and 0 | 0 and 1 and 4 | 0 | 0 | 0 | 0 | 0 | EC50 (C. elegans; 1 h): 18.8 ± 17.5 µM; % effect (motility), DIROIM L4 ([2]; 2 µM): 6%; % effect (motility), DIROIM L4 ([2]; 10 µM): 0%; % effect (motility), DIROIM L4 ([2]; 50 µM): 5%; mean % any phene (coiled, jerky-Unc or paralyzed) (Pristionchus pacificus; [4]): 0%; mean % any phene (coiled, jerky-Unc or paralyzed) (Pristionchus pacificus; conc 15, observed at one hour): 38.3333%; mean % any phene (coiled, jerky-Unc or paralyzed) (Pristionchus pacificus; conc 60, observed at one hour): 98.3333%; EC50 (Pristionchus pacificus): 17.3 ± 6.3 µM
O=[N+]([O-])c1ccc(N2CCN(c3ccccc3O)CC2)cc1 [Nemacol-13] | 0.8333 | 0 and 1 | 0 | 20 and 19 | 0 | 2.5 | 0 and 2 and 1 | 0 | 20 and 18 and 19 | 0 | 20 | 0 and 11 and 13 | 0 | 20 and 9 and 7 | 0 | 0 | 0 | 0 | 0 | 0 | EC50 (C. elegans; [3]): > 60 µM; % effect (motility), DIROIM L4 ([2]; 2 µM): 0%; % effect (motility), DIROIM L4 ([2]; 10 µM): 0%; % effect (motility), DIROIM L4 ([2]; 50 µM): 0%; mean % any phene (coiled, jerky-Unc or paralyzed) (Pristionchus pacificus; [4]): 0%; mean % any phene (coiled, jerky-Unc or paralyzed) (Pristionchus pacificus; conc 15, observed at one hour): 0%; mean % any phene (coiled, jerky-Unc or paralyzed) (Pristionchus pacificus; conc 60, observed at one hour): 9.167%; EC50 (Pristionchus pacificus): > 60 µM
O=[N+]([O-])c1cccc(CN2CCN(C3CCCCC3)CC2)c1 [Nemacol-14] | 0.8333 | 0 | 0 | 20 and 19 | 0 and 1 | 0 | 0 | 0 | 20 | 0 | 6.667 | 0 and 2 | 0 and 2 | 20 and 18 and 16 | 0 | 0 | 0 | 0 | 0 | 0 | EC50 (C. elegans; [3]): > 60 µM; % effect (motility), DIROIM L4 ([2]; 2 µM): 0%; % effect (motility), DIROIM L4 ([2]; 10 µM): 5%; % effect (motility), DIROIM L4 ([2]; 50 µM): 5%; mean % any phene (coiled, jerky-Unc or paralyzed) (Pristionchus pacificus; [4]): 0%; mean % any phene (coiled, jerky-Unc or paralyzed) (Pristionchus pacificus; conc 15, observed at one hour): 0.8333%; mean % any phene (coiled, jerky-Unc or paralyzed) (Pristionchus pacificus; conc 60, observed at one hour): 12.5%; EC50 (Pristionchus pacificus): > 60 µM
